Laboratory results as given in paper PMC6899459 (Chemmedchem, 2019).
Each block holds one compound with its values, some of them ahead of it. Square brackets hold non-standard residues; d marks the D form. Peptide text beside a SMILES is read from it. Trp(3S-Ph) = N[C@H](C(=O)O)[C@@H](c1ccccc1)c1c[nH]c2ccccc12; Trp(βR-Ph) = N[C@H](C(=O)O)[C@H](c1ccccc1)c1c[nH]c2ccccc12; d2Nal = N[C@H](Cc1ccc2ccccc2c1)C(=O)O; dBta = N[C@H](Cc1csc2ccccc12)C(=O)O; Inp = O=C(O)C1CCNCC1

Biological target: ghrelin receptor (Homo sapiens, UniProt Q92847)
Assay: IP-One assay
Format: cell-based
Settings: for potency loss relative to ghrelin: IP-One assay, COS7 cells with ghrelin receptor; for EC50 / E max [Δ%]: SEM; for E max [Δ%]: difference between constitutive activity and maximal effect, mean±SEM of >=2 independent experiments
[1] = normalized to ghrelin (5) efficacy (ghrelin analogues and multiple modified agonists)
[2] = normalized to KbFwLL-NH2 (15) (inverse agonists and 13)

Sequence of ghrelin receptor (Q92847 whole entry): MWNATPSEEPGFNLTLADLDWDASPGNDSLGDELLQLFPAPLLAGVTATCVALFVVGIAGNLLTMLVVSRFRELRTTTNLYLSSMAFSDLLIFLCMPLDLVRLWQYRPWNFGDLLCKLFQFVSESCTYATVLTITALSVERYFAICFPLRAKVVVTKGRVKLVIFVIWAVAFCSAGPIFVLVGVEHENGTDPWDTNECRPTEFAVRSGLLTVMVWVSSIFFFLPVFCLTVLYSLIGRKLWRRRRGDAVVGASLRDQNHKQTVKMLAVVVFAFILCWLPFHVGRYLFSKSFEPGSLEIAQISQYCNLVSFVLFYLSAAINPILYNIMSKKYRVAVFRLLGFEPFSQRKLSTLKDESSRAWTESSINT

Compound: CCCCCCCC(=O)OC[C@H](NC(=O)[C@H](CO)NC(=O)CN)C(=O)N[C@H](C(=O)N[C@@H](CC(C)C)C(=O)N[C@@H](CO)C(=O)N1CCC[C@H]1C(=O)N[C@@H](CCC(=O)O)C(=O)N[C@@H](Cc1c[nH]cn1)C(=O)N[C@@H](CCC(N)=O)C(=O)N[C@@H](CCCNC(=N)N)C(=O)N[C@H](C(=O)N[C@@H](CCC(N)=O)C(=O)N[C@@H](CCC(N)=O)C(=O)N[C@@H](CCCNC(=N)N)C(=O)N[C@@H](CCCCN)C(=O)N[C@@H](CCC(=O)O)C(=O)N[C@@H](CO)C(=O)N[C@@H](CCCCN)C(=O)N[C@@H](CCCCN)C(=O)N1CCC[C@H]1C(=O)N1CCC[C@H]1C(=O)N[C@@H](C)C(=O)N[C@@H](CCCCN)C(=O)N[C@@H](CC(C)C)C(=O)N[C@@H](CCC(N)=O)C(=O)N1CCC[C@H]1C(=O)N[C@@H](CCCNC(=N)N)C(=O)O)C(C)C)[C@H](c1ccccc1)c1c[nH]c2ccccc12 [Peptide 6, Wrf^4‐ghrelin]
potency loss relative to ghrelin: about 12 fold | EC50: 32.4 nM | E max [Δ%] [1]: 98±2 Δ%

Compound: CCCCCCCC(=O)OC[C@H](NC(=O)[C@H](CO)NC(=O)CN)C(=O)N[C@H](C(=O)N[C@@H](CC(C)C)C(=O)N[C@@H](CO)C(=O)N1CCC[C@H]1C(=O)N[C@@H](CCC(=O)O)C(=O)N[C@@H](Cc1c[nH]cn1)C(=O)N[C@@H](CCC(N)=O)C(=O)N[C@@H](CCCNC(=N)N)C(=O)N[C@H](C(=O)N[C@@H](CCC(N)=O)C(=O)N[C@@H](CCC(N)=O)C(=O)N[C@@H](CCCNC(=N)N)C(=O)N[C@@H](CCCCN)C(=O)N[C@@H](CCC(=O)O)C(=O)N[C@@H](CO)C(=O)N[C@@H](CCCCN)C(=O)N[C@@H](CCCCN)C(=O)N1CCC[C@H]1C(=O)N1CCC[C@H]1C(=O)N[C@@H](C)C(=O)N[C@@H](CCCCN)C(=O)N[C@@H](CC(C)C)C(=O)N[C@@H](CCC(N)=O)C(=O)N1CCC[C@H]1C(=O)N[C@@H](CCCNC(=N)N)C(=O)O)C(C)C)[C@@H](c1ccccc1)c1c[nH]c2ccccc12 [Peptide 7, Wsf^4‐ghrelin]
potency loss relative to ghrelin: about 12 fold | EC50: 33.9 nM | E max [Δ%] [1]: 96±2 Δ%

EC50: 182 nM | E max [Δ%] [2]: 66±3 Δ%
Compound: CC(C)C[C@H](NC(=O)[C@H](CC(C)C)NC(=O)[C@@H](Cc1c[nH]c2ccccc12)NC(=O)[C@H](Cc1ccccc1)NC(=O)[C@@H](Cc1c[nH]c2ccccc12)NC(=O)[C@@H](N)CCCCN)C(N)=O [Peptide 8, KwFwLL‐NH2, reference compound]

E max [Δ%] [2]: 72±2 Δ%
Compound: CC(C)C[C@H](NC(=O)[C@H](CC(C)C)NC(=O)[C@@H](Cc1c[nH]c2ccccc12)NC(=O)[C@H](Cc1ccccc1)NC(=O)[C@@H](NC(=O)[C@@H](N)CCCCN)[C@H](c1ccccc1)c1c[nH]c2ccccc12)C(N)=O [Peptide 9, K‐Wrf‐FwLL‐NH2]

Compound: CC(C)C[C@H](NC(=O)[C@H](CC(C)C)NC(=O)[C@@H](Cc1c[nH]c2ccccc12)NC(=O)[C@@H](NC(=O)[C@@H](Cc1c[nH]c2ccccc12)NC(=O)[C@@H](N)CCCCN)[C@H](c1ccccc1)c1c[nH]c2ccccc12)C(N)=O [Peptide 11, Kw‐Wrf‐wLL‐NH2] (H-K[dW][Trp(βR-Ph)][dW]LL-NH2; N-terminus assumed)
EC50: 148 nM | E max [Δ%] [2]: 55±4 Δ%

Compound: CC(C)C[C@H](NC(=O)[C@H](CC(C)C)NC(=O)[C@@H](Cc1c[nH]c2ccccc12)NC(=O)[C@@H](NC(=O)[C@@H](Cc1c[nH]c2ccccc12)NC(=O)[C@@H](N)CCCCN)[C@@H](c1ccccc1)c1c[nH]c2ccccc12)C(N)=O [Peptide 12, Kw‐Wsf‐wLL‐NH2] (H-K[dW][Trp(3S-Ph)][dW]LL-NH2; N-terminus assumed)
EC50: 282 nM | E max [Δ%] [2]: 77±4 Δ%

Compound: CC(C)C[C@H](NC(=O)[C@H](CC(C)C)NC(=O)[C@@H](NC(=O)[C@H](Cc1ccccc1)NC(=O)[C@@H](Cc1c[nH]c2ccccc12)NC(=O)[C@@H](N)CCCCN)[C@H](c1ccccc1)c1c[nH]c2ccccc12)C(N)=O [Peptide 13, KwF‐Wrf‐LL‐NH2]
EC50: 912 nM | E max [Δ%] [2]: 39±3 Δ%

Compound: CC(C)C[C@H](NC(=O)[C@H](CC(C)C)NC(=O)[C@@H](Cc1c[nH]c2ccccc12)NC(=O)[C@@H](NC(=O)[C@@H](Cc1csc2ccccc12)NC(=O)[C@@H](N)CCCCN)[C@H](c1ccccc1)c1c[nH]c2ccccc12)C(N)=O [Peptide 16, Kb‐Wrf‐wLL‐NH2] (H-K[dBta][Trp(βR-Ph)][dW]LL-NH2; N-terminus assumed)
EC50: 550 nM | E max [Δ%] [2]: 56±3 Δ%

Compound: C[C@H](N)C(=O)N[C@H](Cc1c[nH]c2ccccc12)C(=O)N[C@@H](Cc1ccccc1)C(=O)N[C@H](Cc1ccc2ccccc2c1)C(=O)N1CCC(C(N)=O)CC1 [Peptide 18, AwFn‐Isn‐NH2, reference compound] (H-A[dW]F[d2Nal][Inp]-NH2; N-terminus assumed)
EC50: 16.6 nM | E max [Δ%] [1]: 110±6 Δ%

Compound: C[C@H](N)C(=O)N[C@H](Cc1c[nH]c2ccccc12)C(=O)N[C@@H](Cc1ccccc1)C(=O)N[C@H](C(=O)N1CCC(C(N)=O)CC1)[C@H](c1ccccc1)c1c[nH]c2ccccc12 [Peptide 20, AwF‐Wrf‐Isn‐NH2] (H-A[dW]F[Trp(βR-Ph)][Inp]-NH2; N-terminus assumed)
EC50: 27.5 nM | E max [Δ%] [1]: 105±3 Δ%

Compound: C[C@H](N)C(=O)N[C@H](Cc1c[nH]c2ccccc12)C(=O)N[C@@H](Cc1ccccc1)C(=O)N[C@H](C(=O)N1CCC(C(N)=O)CC1)[C@@H](c1ccccc1)c1c[nH]c2ccccc12 [Peptide 21, AwF‐Wsf‐Isn‐NH2] (H-A[dW]F[Trp(3S-Ph)][Inp]-NH2; N-terminus assumed)
EC50: 83.2 nM | E max [Δ%] [1]: 95±2 Δ%
